Laboratory results from publication PMC1090567, “S-Nitrosothiols modulate G protein-coupled receptor signaling in a reversible and highly receptor-specific manner” (BMC Cell Biology, 2005).

Target: T1, Adenosine A1 (Rattus norvegicus, UniProt P25099)
T1 construct: gene Adora1; native receptor in rat forebrain P2 membranes
T1 sequence (P25099 1-326): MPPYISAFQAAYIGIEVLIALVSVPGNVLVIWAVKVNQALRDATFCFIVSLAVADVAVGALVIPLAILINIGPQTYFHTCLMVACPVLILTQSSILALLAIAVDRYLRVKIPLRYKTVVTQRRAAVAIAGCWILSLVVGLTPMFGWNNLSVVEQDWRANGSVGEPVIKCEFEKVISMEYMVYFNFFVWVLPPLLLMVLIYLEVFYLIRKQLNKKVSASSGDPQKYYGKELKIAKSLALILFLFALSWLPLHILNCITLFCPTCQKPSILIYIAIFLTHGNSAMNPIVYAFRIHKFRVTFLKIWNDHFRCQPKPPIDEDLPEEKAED
Experiment: […]GTPγS binding, rat forebrain membranes
Type: biochemical
Conditions: agonist; control without GSNO; 10 μM GDP, pH 7.4, 25 °C

For `Nc1nc(Cl)nc2c1ncn2[C@@H]1O[C@H](CO)[C@@H](O)[C@H]1O` [2-chloroadenosine], which “Control / log(EC50)” value is on record?
Its value is -6.90 ± 0.04.
